Data taken from patent US4160097A, “1-(2-Phenylureylene)imidazoles” (Westwind Pharmaceuticals, Inc., priority 1977, dated 1979).
Converted amounts (≈) assume the structure as drawn.

Key:
[1] = test system: Trichophyton mentagrophytes; assay: Antifungal activity, agar dilution method; type: cell-based, Trichophyton mentagrophytes (ATCC No. 8757 and 9129); conditions: T. mentagrophytes, read-out: Parts Per Million Inhibitions of T. mentagrophytes
Description: (§1) various compounds of this invention display antifungal and anti-yeast activity.
(§2) In Table IX below are listed the antifungal activity of a number of compounds encompassed in the present invention. These were determined by the agar dilution method as described in Chapters 2 and 3 of Methods in Microbiology, Vol. 7B, edited by J. R. Norris and D. W. Ribbons, Academic Press, New York, 1972.

Candida tropicalis = assay: Antifungal activity, agar dilution method; type: cell-based; conditions: C. tropicalis, read-out: Parts Per Million Inhibitions of C. tropicalis
Description: as §1, §2

Candida albicans = assay: Antifungal activity, agar dilution method; type: cell-based, Candida albicans (ATCC No. 10231); conditions: C. albicans, read-out: Parts Per Million Inhibitions of C. albicans
Description: as §1, §2

Trichophyton ajelloi = assay: Antifungal activity, agar dilution method; type: cell-based; conditions: Arthroderma uncinatum, T. ajelloi, read-out: Parts Per Million Inhibitions of T. ajelloi
Description: as §1, §2

immune response = assay: immunosuppressant activity (general statement); type: in vivo, mice; conditions: statement in words
[2] = test system: carrageenan rat paw edema; assay: Rat Paw Edema Assay, Oral Dosing; type: in vivo; conditions: 4 h, 100 mg/kg oral, four hours after drug, read-out: % Difference from Control
Description: (§3) The anti-inflammatory activity of representative compounds of this invention was determined by the rat paw edema assay both by local administration (Table XI below) and by oral dosing (Table XII below). For the oral dosing, the procedure of C. A. Winter, E. A. Risley and G. W. Nuss, Proc. Soc. Exp. Biol. Med. III, 544 (1962) was employed with measurement taken four hours after the drug was administered. The local administration tests were carried out similarly except the irritant (carrageenan) and the test compound were injected simultaneously at time zero.
(§4) Tables XI and XII report the anti-inflammatory activity of the compounds tested as % difference in the edema or swelling as compared with the control. These Tables also give the response in many instances of more than one dose level of the same drug.

[3] = test system: cell-mediated immune response to the antigen, Mycobacterium tuberculosis H37Ra; assay: delayed hypersensitivity test; type: in vivo, mouse; conditions: Mus musculus, sc; mice; dose reducing edema of cell-mediated immune response by 60% vs control; read-out: D.H.S. (ED60)
Description: The immunosuppressant activities of the compounds of this invention were determined via the hemolysin test in mice and by the delayed hypersensitivity test. The hemolysin test used is that described in Methods in Immunology, edited by D. H. Campbell et al, W. A. Benjamin, New York 1963 pages 172-175, and measures humeral or antibody response. The delayed hypersensitivity test measures the effect of a test compound on the ability of a subject mouse to mount a cell-mediated immune response to the antigen, Mycobacterium tuberculosis H37Ra. The mouse is sensitized to the antigen by subcutaneous administration in the base of the tail. The development of the delayed hypersensitivity response may be measured at any time beginning six days after sensitization but is usually done on the ninth day as follows: The right hind paw is injected with purified protein derivative (tuberculin) while the left hind paw (control) receives physiological saline. Both paw volumes are measured after twenty-four hours and significant increase in the volume of the right hand paw is taken as a measure of an effective delayed hypersensitivity response. All compounds were administered by the subcutaneous route.
The D.H.S. (ED60) mg./kg. s.c. value appearing in column 3 is an expression of the effectiveness of the drug in reducing the edema that accompanies the cell-mediated immune response. It is a measure of the number of milligrams per kilogram of body weight of the drug administered subcutaneously which is required to reduce the edema of the cell-mediated immune response by 60% when compared to the control.

[4] = test system: humeral or antibody response; assay: hemolysin test in mice; type: in vivo; conditions: Mus musculus, sc, dose reducing antibody activity by 50% vs control, read-out: HL(ED50)
Trichophyton rubrum = assay: Antifungal activity, agar dilution method; type: cell-based, Trichophyton rubrum (ATCC No. 10218 and 14001); conditions: T. rubrum, read-out: Parts Per Million Inhibitions of T. rubrum
Description: as §1, §2

[5] = test system: carrageenan rat paw edema; assay: Rat Paw Edema Assay, Local Administration; type: in vivo; conditions: read-out: % Difference from Control
Description: as §3, §4

Aspergillus niger = assay: Antifungal activity, agar dilution method; type: cell-based, Aspergillus niger (ATCC No. 16404); conditions: A. niger, read-out: Parts Per Million Inhibitions of A. niger
Description: as §1, §2

SMILES | MIC [1] | MIC (Candida tropicalis) | MIC (Candida albicans) | MIC (Trichophyton ajelloi) | immunosuppressant activity (immune response) | change in vivo at 100 mg/kg [2] | ED60 [3] | ED50 [4] | MIC (Trichophyton rubrum) | change in vivo at 100 mg/kg ([5]; 100 mg/kg, local administration) | MIC (Aspergillus niger) | change in vivo at 0.001 mg ([5]; 1 μg, injected directly into paw) | change in vivo at 0.01 mg ([5]; 10 μg, injected directly into paw) | change in vivo at 0.1 mg ([5]; 100 μg, injected directly into paw)
CCCCc1nc2ccccc2n2ccnc12 [Compound 113] | 100 µg/mL (≈ 444 µM) | 100 µg/mL (≈ 444 µM) | 100 µg/mL (≈ 444 µM) |  |  |  |  |  |  |  |  |  |  | 
C1=CCC(c2nc3ccccc3n3ccnc23)CC1 (stereo not shown) [Compound 130] | 100 µg/mL (≈ 401 µM) | 100 µg/mL (≈ 401 µM) | 100 µg/mL (≈ 401 µM) | 100 µg/mL (≈ 401 µM) |  |  |  |  |  |  |  |  |  | 
c1ccc(-c2nc3ccccc3n3ccnc23)cc1 [Compound 131, 4-phenylimidazo[1,2-a]quinoxaline, reference compound] | 16 µg/mL (≈ 65.2 µM) |  |  |  | only minor activity | -52% | 81 mg/kg | 18 mg/kg | 2 µg/mL (≈ 8.15 µM) |  |  |  |  | 
O=C(Nc1ccccc1-n1ccnc1)c1ccc(-c2ccccc2)cc1 [Compound 40] | 100 µg/mL (≈ 295 µM) | 100 µg/mL (≈ 295 µM) | 100 µg/mL (≈ 295 µM) | 100 µg/mL (≈ 295 µM) |  | -43% |  |  |  |  |  |  |  | 
Cc1nc2ccccc2n2ccnc12 [Compound 110] | 128 µg/mL (≈ 699 µM) |  |  |  |  | -43% | 50 mg/kg |  | 64 µg/mL (≈ 349 µM) | -74% | 128 µg/mL (≈ 699 µM) |  |  | 
c1ccc(Cc2nc3ccccc3n3ccnc23)cc1 [Compound 124] | 100 µg/mL (≈ 386 µM) | 100 µg/mL (≈ 386 µM) | 100 µg/mL (≈ 386 µM) | 100 µg/mL (≈ 386 µM) |  |  |  |  | 8 µg/mL (≈ 30.9 µM) |  |  |  |  | 
c1ccc2c(c1)ncc1nccn12 [Compound 109, imidazo[1,2-a]quinoxaline, reference compound] | 128 µg/mL (≈ 757 µM) |  |  |  | lacks immunosuppressant activity | -17% | > 50 mg/kg | > 50 mg/kg | 32 µg/mL (≈ 189 µM) |  |  | -30.8% | -3.9% | 31.6%
Cc1cccc(-c2nc3ccccc3n3ccnc23)c1 [Compound 133] | 8 µg/mL (≈ 30.9 µM) | 100 µg/mL (≈ 386 µM) | 100 µg/mL (≈ 386 µM) | 8 µg/mL (≈ 30.9 µM) |  | -17% | 32 mg/kg | 0.75 mg/kg | 8 µg/mL (≈ 30.9 µM) |  |  |  |  | 
